Measurements published in PubChem BioAssay (NCI).
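A five-concentration, 48-hour dose response in 96-well plates underlies each endpoint, interpolated linearly between surrounding concentrations. Abbreviation: GI50, concentration required for 50% inhibition of growth. At the TGI there is no net growth.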

Columns and labels:
Test in all cases: NCI-60 cell line screen, 48 h; in the data active = GI50 below about 0.43 µM; inactive = the rest
NCI-H226 lung = system: NCI-H226 lung
MDA-MB-468 breast = system: MDA-MB-468 breast
ACHN renal = system: ACHN renal
TK-10 renal = system: TK-10 renal
NCI-H460 lung = system: NCI-H460 lung
OVCAR-3 ovarian = system: OVCAR-3 ovarian
HOP-92 NSCLC = system: HOP-92 NSCLC
NCI-H522 lung = system: NCI-H522 lung
KM12 colon = system: KM12 colon
UACC-257 melanoma = system: UACC-257 melanoma
OVCAR-5 ovarian = system: OVCAR-5 ovarian
UO-31 renal = system: UO-31 renal
A549 NSCLC = system: A549 NSCLC
LOX IMVI melanoma = system: LOX IMVI melanoma
HCT-15 colon = system: HCT-15 colon
SF-295 CNS = system: SF-295 CNS
M14 melanoma = system: M14 melanoma
SNB-19 CNS = system: SNB-19 CNS
SN12C renal = system: SN12C renal
MDA-MB-231 breast = system: MDA-MB-231 breast
HT29 colon = system: HT29 colon
SF-268 CNS = system: SF-268 CNS
NCI-H23 lung = system: NCI-H23 lung
SF-539 CNS = system: SF-539 CNS
SW-620 colon = system: SW-620 colon
SK-MEL-2 melanoma = system: SK-MEL-2 melanoma
DU-145 prostate = system: DU-145 prostate
OVCAR-8 ovarian = system: OVCAR-8 ovarian
SK-OV-3 ovarian = system: SK-OV-3 ovarian
T-47D breast = system: T-47D breast
CAKI-1 renal = system: CAKI-1 renal
HS 578T breast = system: HS 578T breast
HCT-116 colon = system: HCT-116 colon
HOP-62 NSCLC = system: HOP-62 NSCLC
IGROV1 ovarian = system: IGROV1 ovarian
U251 CNS = system: U251 CNS
K-562 leukemia = system: K-562 leukemia
HL-60(TB) leukemia = system: HL-60(TB) leukemia
COLO 205 colon = system: COLO 205 colon
SK-MEL-5 melanoma = system: SK-MEL-5 melanoma
UACC-62 melanoma = system: UACC-62 melanoma
CCRF-CEM leukemia = system: CCRF-CEM leukemia
MALME-3M melanoma = system: MALME-3M melanoma
RXF 393 renal = system: RXF 393 renal
MCF7 breast = system: MCF7 breast
786-0 renal = system: 786-0 renal
A498 renal = system: A498 renal
SK-MEL-28 melanoma = system: SK-MEL-28 melanoma
PC-3 prostate = system: PC-3 prostate
SNB-75 CNS = system: SNB-75 CNS
HCC-2998 colon = system: HCC-2998 colon
EKVX NSCLC = system: EKVX NSCLC
MDA-MB-435 = system: MDA-MB-435
NCI/ADR-RES ovarian = system: NCI/ADR-RES ovarian
BT-549 breast = system: BT-549 breast
RPMI-8226 leukemia = system: RPMI-8226 leukemia

CN(C)c1nc(NCCNS(=O)(=O)c2ccc(C3=Nc4c(N)nc(N)nc4NC(c4ccc(Cl)cc4)C3)cc2)nc(Nc2ccc(F)cc2)n1 (configuration not stated)
14.3 µM: TGI (SK-MEL-5 melanoma)
19.2 µM: TGI (MALME-3M melanoma)
8.75 µM: TGI (RXF 393 renal)
65.7 µM: TGI (MDA-MB-231 breast)
18.4 µM: TGI (HCC-2998 colon)
28.7 µM: TGI (BT-549 breast)
> 100 µM: TGI (NCI-H226 lung) | TGI (ACHN renal) | TGI (TK-10 renal) | TGI (NCI-H460 lung) | TGI (OVCAR-3 ovarian) | TGI (NCI-H522 lung) | TGI (KM12 colon) | TGI (UACC-257 melanoma) | TGI (OVCAR-5 ovarian) | TGI (UO-31 renal) | TGI (A549 NSCLC) | TGI (HCT-15 colon) | TGI (SF-295 CNS) | TGI (SNB-19 CNS) | TGI (SN12C renal) | TGI (SF-268 CNS) | TGI (NCI-H23 lung) | TGI (SF-539 CNS) | TGI (SW-620 colon) | TGI (DU-145 prostate) | TGI (OVCAR-8 ovarian) | TGI (SK-OV-3 ovarian) | TGI (T-47D breast) | TGI (CAKI-1 renal) | TGI (HS 578T breast) | TGI (HCT-116 colon) | TGI (HOP-62 NSCLC) | TGI (IGROV1 ovarian) | TGI (U251 CNS) | TGI (K-562 leukemia) | TGI (UACC-62 melanoma) | TGI (CCRF-CEM leukemia) | TGI (MCF7 breast) | TGI (786-0 renal) | TGI (A498 renal) | TGI (SK-MEL-28 melanoma) | TGI (PC-3 prostate) | TGI (SNB-75 CNS) | TGI (EKVX NSCLC) | TGI (MDA-MB-435) | TGI (NCI/ADR-RES ovarian) | TGI (RPMI-8226 leukemia)
11.5 µM: TGI (M14 melanoma)
14 µM: TGI (SK-MEL-2 melanoma)
4.92 µM: TGI (MDA-MB-468 breast)
7.54 µM: TGI (HT29 colon)
3.55 µM: TGI (LOX IMVI melanoma)
25.6 µM: TGI (COLO 205 colon)
13.2 µM: TGI (HOP-92 NSCLC)
inactive: GI50 (NCI-H226 lung) > 100 µM | GI50 (MDA-MB-468 breast) 1.92 µM | GI50 (ACHN renal) > 100 µM | GI50 (TK-10 renal) > 100 µM | GI50 (NCI-H460 lung) 4.49 µM | GI50 (OVCAR-3 ovarian) 7.45 µM | GI50 (HOP-92 NSCLC) 2.53 µM | GI50 (NCI-H522 lung) 16 µM | GI50 (KM12 colon) 3.98 µM | GI50 (UACC-257 melanoma) 8.07 µM | GI50 (OVCAR-5 ovarian) > 100 µM | GI50 (UO-31 renal) > 100 µM | GI50 (A549 NSCLC) > 100 µM | GI50 (LOX IMVI melanoma) 1.77 µM | GI50 (HCT-15 colon) > 100 µM | GI50 (SF-295 CNS) 6.2 µM | GI50 (M14 melanoma) 3.15 µM | GI50 (SNB-19 CNS) 5.67 µM | GI50 (SN12C renal) 7.38 µM | GI50 (MDA-MB-231 breast) 3.73 µM | GI50 (HT29 colon) 2.68 µM | GI50 (SF-268 CNS) 5.74 µM | GI50 (NCI-H23 lung) 72.7 µM | GI50 (SF-539 CNS) 3.3 µM | GI50 (SW-620 colon) 5.95 µM | GI50 (SK-MEL-2 melanoma) 3.34 µM | GI50 (DU-145 prostate) > 100 µM | GI50 (OVCAR-8 ovarian) > 100 µM | GI50 (SK-OV-3 ovarian) > 100 µM | GI50 (T-47D breast) 7.93 µM | GI50 (CAKI-1 renal) 8.07 µM | GI50 (HS 578T breast) 7.15 µM | GI50 (HCT-116 colon) 3.77 µM | GI50 (HOP-62 NSCLC) > 100 µM | GI50 (IGROV1 ovarian) 9.95 µM | GI50 (U251 CNS) 5.14 µM | GI50 (K-562 leukemia) 3.08 µM | GI50 (HL-60(TB) leukemia) 2.72 µM | GI50 (COLO 205 colon) 5.65 µM | GI50 (SK-MEL-5 melanoma) 3.45 µM | GI50 (UACC-62 melanoma) 6.46 µM | GI50 (CCRF-CEM leukemia) 2.92 µM | GI50 (MALME-3M melanoma) 3.86 µM | GI50 (RXF 393 renal) 2.27 µM | GI50 (MCF7 breast) 2.89 µM | GI50 (786-0 renal) 6.21 µM | GI50 (A498 renal) 58.4 µM | GI50 (SK-MEL-28 melanoma) 8.22 µM | GI50 (PC-3 prostate) 3.44 µM | GI50 (SNB-75 CNS) 3.76 µM | GI50 (HCC-2998 colon) 3.14 µM | GI50 (EKVX NSCLC) 5.05 µM | GI50 (MDA-MB-435) 5.17 µM | GI50 (NCI/ADR-RES ovarian) > 100 µM | GI50 (BT-549 breast) 3.96 µM | GI50 (RPMI-8226 leukemia) 3.19 µM
13.3 µM: TGI (HL-60(TB) leukemia)
